US6737383B1, “Herbicidal oxadiazolidines” (priority 1999, dated 2004)

What was measured:
corn = assay: Test B pre/postemergence corn; assay type: in vivo, Zea mays
Summary of the method: (§1)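 Response is a visual 0-to-10 score relative to untreated plants, where 0 means no effect and 10 means complete control, taken twelve to sixteen days after application. Treatments went onto soil at planting and onto foliage of 1- to 4-leaf plants, using a surfactant-containing non-phytotoxic solvent.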

velvetleaf = assay: Test B pre/postemergence velvetleaf; assay type: in vivo, Abutilon theophrasti
Summary of the method: as §1

wild oat = assay: Test B pre/postemergence wild oat; assay type: in vivo, Avena fatua
Summary of the method: as §1

sugar beet = assay: Test B pre/postemergence sugar beet; assay type: in vivo, Beta vulgaris
Summary of the method: as §1

rape = assay: Test B pre/postemergence rape; assay type: in vivo, Brassica napus
Summary of the method: as §1

blackgrass = assay: Test B pre/postemergence blackgrass; assay type: in vivo, Alopecurus myosuroides
Summary of the method: as §1

soybean = assay: Test B pre/postemergence soybean; assay type: in vivo, Glycine max
Summary of the method: as §1

cocklebur = assay: Test B pre/postemergence cocklebur; assay type: in vivo, Xanthium strumarium
Summary of the method: as §1

purple nutsedge = assay: Test B pre/postemergence purple nutsedge; assay type: in vivo, Cyperus rotundus
Summary of the method: as §1

pigweed = assay: Test B pre/postemergence pigweed; assay type: in vivo, Amaranthus retroflexus
Summary of the method: as §1

surinam grass = assay: Test B pre/postemergence surinam grass; assay type: in vivo, Brachiaria decumbens
Summary of the method: as §1

bedstraw = assay: Test B pre/postemergence bedstraw; assay type: in vivo, Galium aparine; details: Preemergence
Summary of the method: as §1

giant foxtail = assay: Test B pre/postemergence giant foxtail; assay type: in vivo, Setaria faberii
Summary of the method: as §1

crabgrass = assay: Test B pre/postemergence crabgrass; assay type: in vivo, Digitaria sanguinalis
Summary of the method: as §1

wheat = assay: Test B pre/postemergence wheat; assay type: in vivo, Triticum aestivum
Summary of the method: as §1

morningglory = assay: Test B pre/postemergence morningglory; assay type: in vivo, Ipomoea hederacea
Summary of the method: as §1

[1] = Postemergence, Rate 62 g/ha, scale 0 to 10, 0 is no effect, 10 is complete control
[2] = Postemergence, Rate 125 g/ha, scale of 0 to 10 where 0 is no effect and 10 is complete control
[3] = Preemergence, Rate 62 g/ha, scale of 0 to 10 where 0 is no effect and 10 is complete control
[4] = Preemergence, Rate 125 g/ha, scale of 0 to 10 where 0 is no effect and 10 is complete control
[5] = Preemergence, Rate 250 g/ha, scale 0 (no effect) to 10 (complete control)
[6] = Rate 250 g/ha, Postemergence, scale 0 to 10, 0 is no effect, 10 is complete control
[7] = Rate 500 g/ha, Postemergence, scale 0 to 10, 0 is no effect, 10 is complete control
[8] = Preemergence, Rate 500 g/ha, scale of 0 to 10 where 0 is no effect and 10 is complete control

CC(C)N(C(=O)n1oc(=O)n(CF)c1=O)c1ccc(F)cc1 [Compound 709]
9: Giant foxtail plant response rating (giant foxtail; [7])
1: Plant response rating, Soybean (soybean; [1])
5: Plant response rating, Redroot pigweed (pigweed; [1]) | Redroot pigweed plant response rating (pigweed; [2]) | Redroot pigweed plant response rating (pigweed; [5])
2: Giant foxtail plant response rating (giant foxtail; [3]) | Plant response rating, Crabgrass (crabgrass; [1]) | Crabgrass plant response rating (crabgrass; [3]) | Morningglory plant response rating (morningglory; [6])
8: Redroot pigweed plant response rating (pigweed; [6]) | Redroot pigweed plant response rating (pigweed; [7]) | Giant foxtail plant response rating (giant foxtail; [6]) | Crabgrass plant response rating (crabgrass; [7])
7: Giant foxtail plant response rating (giant foxtail; [5]) | Crabgrass plant response rating (crabgrass; [5])
4: Plant response rating, Velvetleaf (velvetleaf; [1]) | Velvetleaf plant response rating (velvetleaf; [2]) | Velvetleaf plant response rating (velvetleaf; [6]) | Soybean plant response rating (soybean; [7]) | Giant foxtail plant response rating (giant foxtail; [2]) | Plant response rating, Giant foxtail (giant foxtail; [4])
3: Soybean plant response rating (soybean; [2]) | Soybean plant response rating (soybean; [6]) | Cocklebur plant response rating (cocklebur; [7]) | Plant response rating, Giant foxtail (giant foxtail; [1]) | Crabgrass plant response rating (crabgrass; [2]) | Plant response rating, Crabgrass (crabgrass; [4])
6: Velvetleaf plant response rating (velvetleaf; [7]) | Nutsedge plant response rating (purple nutsedge; [7]) | Crabgrass plant response rating (crabgrass; [6]) | Morningglory plant response rating (morningglory; [7])
0: Plant response rating, Corn (corn; [1]) | Corn plant response rating (corn; [2]) | Corn plant response rating (corn; [3]) | Plant response rating, Corn (corn; [4]) | Corn plant response rating (corn; [5]) | Corn plant response rating (corn; [6]) | Corn plant response rating (corn; [7]) | Velvetleaf plant response rating (velvetleaf; [3]) | Plant response rating, Velvetleaf (velvetleaf; [4]) | Velvetleaf plant response rating (velvetleaf; [5]) | Plant response rating, Wild oats (wild oat; [1]) | Wild oats plant response rating (wild oat; [2]) | Wild oats plant response rating (wild oat; [3]) | Plant response rating, Wild oats (wild oat; [4]) | Wild oats plant response rating (wild oat; [5]) | Wild oats plant response rating (wild oat; [6]) | Wild oats plant response rating (wild oat; [7]) | Plant response rating, Sugarbeets (sugar beet; [1]) | Sugarbeets plant response rating (sugar beet; [2]) | Sugarbeets plant response rating (sugar beet; [3]) | Plant response rating, Sugarbeets (sugar beet; [4]) | Sugarbeets plant response rating (sugar beet; [5]) | Sugarbeets plant response rating (sugar beet; [6]) | Sugarbeets plant response rating (sugar beet; [7]) | Plant response rating, Rape (rape; [1]) | Rape plant response rating (rape; [2]) | Rape plant response rating (rape; [3]) | Plant response rating, Rape (rape; [4]) | Rape plant response rating (rape; [5]) | Rape plant response rating (rape; [6]) | Rape plant response rating (rape; [7]) | Plant response rating, Blackgrass (blackgrass; [1]) | Blackgrass plant response rating (blackgrass; [2]) | Blackgrass plant response rating (blackgrass; [3]) | Plant response rating, Blackgrass (blackgrass; [4]) | Blackgrass plant response rating (blackgrass; [5]) | Plant response rating, Blackgrass (blackgrass; [8]) | Blackgrass plant response rating (blackgrass; [6]) | Blackgrass plant response rating (blackgrass; [7]) | Soybean plant response rating (soybean; [3]) | Plant response rating, Soybean (soybean; [4]) | Soybean plant response rating (soybean; [5]) | Plant response rating, Cocklebur (cocklebur; [1]) | Cocklebur plant response rating (cocklebur; [2]) | Cocklebur plant response rating (cocklebur; [3]) | Plant response rating, Cocklebur (cocklebur; [4]) | Cocklebur plant response rating (cocklebur; [5]) | Plant response rating, Cocklebur (cocklebur; [8]) | Cocklebur plant response rating (cocklebur; [6]) | Plant response rating, Nutsedge (purple nutsedge; [1]) | Nutsedge plant response rating (purple nutsedge; [2]) | Nutsedge plant response rating (purple nutsedge; [3]) | Plant response rating, Nutsedge (purple nutsedge; [4]) | Nutsedge plant response rating (purple nutsedge; [6]) | Redroot pigweed plant response rating (pigweed; [3]) | Plant response rating, Redroot pigweed (pigweed; [4]) | Plant response rating, B. signalgrass (surinam grass; [1]) | B. signalgrass plant response rating (surinam grass; [2]) | B. signalgrass plant response rating (surinam grass; [3]) | Plant response rating, B. signalgrass (surinam grass; [4]) | B. signalgrass plant response rating (surinam grass; [5]) | Plant response rating, B. signalgrass (surinam grass; [8]) | B. signalgrass plant response rating (surinam grass; [6]) | B. signalgrass plant response rating (surinam grass; [7]) | Bedstraw plant response rating (bedstraw; Rate 62 g/ha, scale of 0 to 10 where 0 is no effect and 10 is complete control) | Plant response rating, Bedstraw (bedstraw; Rate 125 g/ha, scale of 0 to 10 where 0 is no effect and 10 is complete control) | Bedstraw plant response rating (bedstraw; Rate 250 g/ha, scale 0 (no effect) to 10 (complete control)) | Plant response rating, Bedstraw (bedstraw; Rate 500 g/ha, scale of 0 to 10 where 0 is no effect and 10 is complete control) | Plant response rating, Wheat (wheat; [1]) | Wheat plant response rating (wheat; [2]) | Wheat plant response rating (wheat; [3]) | Plant response rating, Wheat (wheat; [4]) | Wheat plant response rating (wheat; [5]) | Wheat plant response rating (wheat; [6]) | Wheat plant response rating (wheat; [7]) | Morningglory plant response rating (morningglory; [2]) | Morningglory plant response rating (morningglory; [3]) | Plant response rating, Morningglory (morningglory; [4]) | Morningglory plant response rating (morningglory; [5])
